Experiments:
Assay type in all cases: functional
SF-268 = assay: Growth inhibition of human SF268 cells by sulforhodamine B assay
HCT-116 = assay: Growth inhibition of human HCT116 cells by sulforhodamine B assay
[1] = Growth inhibition of human HCC2998 cells by sulforhodamine B assay
HOP-62 = assay: Growth inhibition of human HOP62 cells by sulforhodamine B assay
IGROV-1 = assay: Growth inhibition of human IGROV1 cells assessed as cell growth at 10^-8 M by sulforhodamine B assay; settings: read-out: Activity
SK-MEL-5 = assay: Growth inhibition of human SK-MEL-5 cells assessed as cell growth at 10^-8 M by sulforhodamine B assay; settings: read-out: Activity
NCI-H522 = assay: Growth inhibition of human NCI-H522 cells assessed as cell growth at 10^-8 M by sulforhodamine B assay; settings: read-out: Activity
NCI-H23 = assay: Growth inhibition of human NCI-H23 cells assessed as cell growth at 10^-8 M by sulforhodamine B assay; settings: read-out: Activity
HL-60(TB) = assay: Growth inhibition of human HL-60(TB) cells assessed as cell growth at 10^-8 M by sulforhodamine B assay; settings: read-out: Activity
UO-31 = assay: Growth inhibition of human UO31 cells by sulforhodamine B assay
OVCAR-3 = assay: Growth inhibition of human OVCAR3 cells by sulforhodamine B assay
UACC-62 = assay: Growth inhibition of human UACC62 cells by sulforhodamine B assay
[2] = read-out: LC50 (the source's name)
[3] = read-out: pLC50 (the source's name) (converted)

CC1(C)C[C@@H](O)[C@]2(C(=O)O)CC[C@]3(C)C(=CC[C@@H]4[C@@]5(C)C/C(=C\C=C\c6ccccc6)C(=O)C(C)(C)[C@@H]5CC[C@]43C)[C@@H]2C1
GI50 (SF-268; read-out: GI50): 3.36 µM
LC50 (SF-268; read-out: LC50): 45.5 µM
TGI (SF-268; read-out: TGI): 14 µM
GI50 (SF-268; read-out: pGI50 (converted)): 3.39 µM
LC50 (SF-268; read-out: pLC50 (converted)): 45.7 µM
TGI (SF-268; read-out: pTGI (converted)): 14.1 µM
GI50 (HCT-116; read-out: GI50): 2.89 µM
LC50 (HCT-116; read-out: LC50): 82.7 µM
TGI (HCT-116; read-out: TGI): 11.2 µM
GI50 (HCT-116; read-out: pGI50 (converted)): 2.88 µM
LC50 (HCT-116; read-out: pLC50 (converted)): 83.2 µM
TGI (HCT-116; read-out: pTGI (converted)): 11.2 µM
GI50 ([1]; HCC 2998, read-out: GI50): 2.95 µM
CC50 ([1]; HCC 2998, read-out: LC50 (the source's name)): 27.9 µM
TGI ([1]; HCC 2998, read-out: TGI): 7.55 µM
GI50 ([1]; HCC 2998, read-out: pGI50 (converted)): 2.95 µM
CC50 ([1]; HCC 2998, read-out: pLC50 (the source's name) (converted)): 28.2 µM
TGI ([1]; HCC 2998, read-out: pTGI (converted)): 7.59 µM
GI50 (HOP-62; read-out: GI50): 4.72 µM
LC50 (concentration killing 50% of cells) (HOP-62; read-out: LC50): 83.5 µM
TGI (HOP-62; read-out: TGI): 21.2 µM
GI50 (HOP-62; read-out: pGI50 (converted)): 4.68 µM
LC50 (concentration killing 50% of cells) (HOP-62; read-out: pLC50 (converted)): 83.2 µM
TGI (HOP-62; read-out: pTGI (converted)): 21.4 µM
growth at 0.01 µM (IGROV-1): 107%
growth at 0.01 µM (SK-MEL-5): 99%
growth at 0.01 µM (NCI-H522): 89%
growth at 0.01 µM (NCI-H23): 95%
growth at 0.01 µM (HL-60(TB)): 101%
GI50 (UO-31; read-out: GI50): 3.39 µM
CC50 (UO-31; [2]): 45.9 µM
TGI (UO-31; read-out: TGI): 13.6 µM
GI50 (UO-31; read-out: pGI50 (converted)): 3.39 µM
CC50 (UO-31; [3]): 45.7 µM
TGI (UO-31; read-out: pTGI (converted)): 13.5 µM
GI50 (OVCAR-3; read-out: GI50): 2.04 µM
CC50 (OVCAR-3; [2]): 14.2 µM
TGI (OVCAR-3; read-out: TGI): 4.81 µM
GI50 (OVCAR-3; read-out: pGI50 (converted)): 2.04 µM
CC50 (OVCAR-3; [3]): 14.1 µM
TGI (OVCAR-3; read-out: pTGI (converted)): 4.79 µM
GI50 (UACC-62; read-out: GI50): 1.76 µM
CC50 (UACC-62; [2]): 7.84 µM
TGI (UACC-62; read-out: TGI): 3.71 µM
GI50 (UACC-62; read-out: pGI50 (converted)): 1.78 µM
CC50 (UACC-62; [3]): 7.76 µM
